The test system of data set [1] is Leishmania donovani axenic amastigotes (MHOM-ET-67/L82 strain). Put plainly: In vitro activity against L. donovani axenic amastigotes (resazurin). Type of data set: cell-based. The conditions noted are these: for IC50: Leishmania donovani. As for the experimental part: (§1) In vitro tests for determination of activity against axenic amastigotes of Leishmania donovani (MHOM-ET-67/L82 strain) and cytotoxicity against mammalian cells (L6-cell-line from rat skeletal myoblasts) as well as against intramacrophage amastigotes of L. donovani were conducted at Swiss TPH according to an established protocol as reported before. For a repetition of these methods, see Supplementary File.
Miltefosine (≥98%, Sigma-Aldrich, Buchs, Switzerland) and podophyllotoxin (≥98%, Sigma-Aldrich, Buchs, Switzerland) were used as positive controls. Growth inhibition assays were meant to give only preliminary information on whether fractions show any bioactivity or not. Due to this explorative nature, this was conducted once. IC50 values represent geometric means of two independent determinations and were calculated by linear regression from the sigmoidal dose inhibition curves using SoftmaxPro (Molecular Devices Cooperation, Sunnyvale, CA, USA) software.
(§2) Biological Assays (according to [14,15])
(§3) The following biological tests were performed by applying validated method s of the Swiss TPH as previously published and described below. […]
(§4) After that, resazurin solution
(§5) (12.5 mg in 100 mL water, 10 μL) was added to each well, and the incubation continued for 2–4 h more. Then, the plates were read using a Spectramax Gemini XS microplate fluorometer (Molecular Devices Cooperation, Sunnyvale, CA, USA) and excitation and emission wavelengths of 536 and 588 nm, respectively. Data were analyzed with the software Softmax Pro (Molecular Devices Cooperation, Sunnyvale, CA, USA), which calculated IC50 values by linear regression and 4‐parameter logistic regression from the sigmoidal dose inhibition curves. […]
In vitro activity against L. donovani axenic amastigotes. Amastigotes of L. donovani strain MHOM/ET/67/L82 were grown in axenic culture at 37 °C in SM medium at pH 5.4 supplemented with 10% heat‐inactivated fetal bovine serum under a 5% CO2 atmosphere. Aliquots containing […] amastigotes from the axenic culture (100 μL), with or without a serial compound dilution (as specified before), were seeded in 96‐well plates. After 70 h of incubation, the plates were inspected under an inverted microscope to assure growth of the controls and sterile conditions.
Then, resazurin solution (12.5 mg in 100 mL water, 10 μL) was added to each well and the plates incubated for another 2 h. Finally, the plates were read using the same conditions mentioned for T. brucei rhodesiense. Data were analyzed in the same way. Miltefosine was used as positive control. […]
(§6) Netherlands). Compounds were diluted with medium as indicated above before being added to parasite cultures incubated in RPMI 1640 medium without hypoxanthine, supplemented with HEPES (5.94 g/L), NaHCO3 (2.1 g/L), neomycin (100 U/mL), AlbumaxR (5 g/L) and washed human red cells A+ at 2.5% hematocrit (0.3% parasitemia).
Serial compound dilutions were prepared as before. The 96‐well plates were incubated in a humidified atmosphere at 37 °C; 4% CO2, 3% O2, 93% N2. After 48 h, 50 μL of 3H‐hypoxanthine (0.5 μCi) was added to each well of the plate. The plates were incubated for a further 24 h under the same conditions. […] The dried filters were inserted into a plastic foil with 10 mL of scintillation fluid and counted in a Betaplate™ liquid scintillation counter (Wallac, Zurich, Switzerland). […]

Data set [2] in a line: In vitro cytotoxicity with L-6 cells (resazurin). It counts as cell-based. The conditions noted are these: rat, read-out: Cytotoxicity against L6 Rat Skeletal Myoblasts IC50. As for the experimental part: as §1, §2, §3, §4, §5
Aliquots containing 105 amastigotes from the axenic culture (100 μL), with or without a serial compound dilution (as specified before), were seeded in 96‐well plates. After 70 h of incubation, the plates were inspected under an inverted microscope to assure growth of the controls and sterile conditions. […]
as §6
Serial compound dilutions were prepared as before. The 96‐well plates were incubated in a humidified atmosphere at 37 °C; 4% CO2, 3% O2, 93% N2. After 48 h, 50 μL of 3H‐hypoxanthine (0.5 μCi) was added to each well of the plate. The plates were incubated for a further 24 h under the same conditions. The plates were then harvested with a Betaplate™ cell harvester (Wallac, Zurich, Switzerland), and the red blood cells were transferred onto a glass fiber filter then washed with distilled water. The dried filters were inserted into a plastic foil with 10 mL of scintillation fluid and counted in a Betaplate™ liquid scintillation counter (Wallac, Zurich, Switzerland). […]
(§7) Serial compound dilutions prepared, as before, were us ed. […] Finally, the plates were read, and the data were treated as mentioned before. […]
Extracellular amast igotes were removed by triplicate washing after further 24 h. […] Images of the plates were recorded with an ImageXpress XLS (MD) microscope and automatically analyzed using the MetaXpress Software. […]
For orientation: Alamar Blue is a resazurin reagent that responds to reducing activity.

For data set [3], the system named is Leishmania donovani intracellular amastigotes. Put plainly: In vitro activity against intracellular amastigotes of L. donovani in peritoneal murine macrophages. It counts as cell-based. The settings on record: Macrophage. On the procedure: as §1, §2, §3
Serial compound dilutions were prepared as before. […] The dried filters were inserted into a plastic foil with 10 mL of scintillation fluid and counted in a Betaplate™ liquid scintillation counter (Wallac, Zurich, Switzerland). […]
as §7
Extracellular amast igotes were removed by triplicate washing after further 24 h. […] Images of the plates were recorded with an ImageXpress XLS (MD) microscope and automatically analyzed using the MetaXpress Software. Infected and non‐infected macrophages, as well as the number of intracellular parasites, were recorded. […]

Data set [4] has as its system Leishmania donovani axenic amastigotes (MHOM-ET-67/L82 strain). Also on record: method as in PMID 21157686. The conditions noted are these: cited from earlier work.
For data set [5], the system named is P. falciparum NF54 strain erythrocytic stages. Set-up: method as in PMID 21157686. The settings on record: cited from earlier work.
The mark [6] stands for this setting: geometric mean of two independent determinations.
[7] abbreviates: geometric mean of two independent determinations (lower; upper).

“And” between values parts separate entries of the source, which are not always exact repeats. Equal values may be shown once. Read-outs that look alike come from different tables or passages of the source.

By IC50 is commonly meant the midpoint of a concentration-inhibition curve. For `C[C@H]1[C@H](C)CC[C@]2(C)CC[C@]3(C)C(=CC[C@@H]4[C@@]5(C)CC[C@@H](O)[C@](C)(C(=O)O)[C@@H]5CC[C@]43C)[C@H]12` [Compound 3, β-boswellic acid], in data set [1] (L6 cytotoxicity vs L. donovani axenic amastigotes), the “SI (selectivity index)” value was determined as 6.2. Besides, the values for the IC50 in data set [1] (setting [6]) and in data set [1] (setting [7]) were 5300 nM and 2.4 µg/mL, respectively. For the same molecule, the IC50 at 70 h in data set [2] (setting [7]) came to 15 µg/mL; in data set [2] (setting [6]), 33000 nM.

`CCCCCCCCCCCCCCCCOP(=O)([O-])OCC[N+](C)(C)C` [PCM, miltefosine]: the concentration for half-maximal inhibition (IC50) in data set [1] (setting [6]) was 120 nM; in data set [1] (setting [7]), 0.047 µg/mL; in data set [3], 1.9 µg/mL and 4.7 µM.

As to `COc1cc([C@@H]2c3cc4c(cc3[C@H](O)[C@H]3COC(=O)[C@H]23)OCO4)cc(OC)c1OC` [PCP, podophyllotoxin], the IC50 at 70 h in data set [2] (setting [7]) was found to be 0.009 µg/mL; in data set [2] (setting [6]) it was 20 nM.

For `C/C1=C\CC/C(C)=C/C[C@](O)(C(C)C)CC/C(C)=C/CC1` [Serratol], in data set [4], the “activity against L. donovani axenic amastigotes” value was “essentially inactive”. For the same molecule, the “antiplasmodial activity in vitro” value in data set [5] is on record as “antiplasmodial activity”.

The values are drawn from paper PMC8232742, “Boswellic Acids Show In Vitro Activity against Leishmania donovani” (Molecules, 2021).
